Source: US8303964B2, “Viable non-toxic gram-negative bacteria” (priority 2006, dated 2012)
In brackets after ≈: the same amount, converted by molar mass. Where two headings read alike, the source gives them in different places. Bridge positions count the residues as written; N and C are the ends. Square brackets hold non-standard residues; d marks the D form. Peptide text beside a SMILES is read from it. * marks the point of attachment. Ileψ(thiazoline)Cys = CC[C@H](C)[C@H](N)C1=N[C@H](C(=O)*)CS1; dOrn = NCCC[C@@H](N)C(=O)O

Columns and labels:
[1] = target: kdsD (Escherichia coli, UniProt P45395); settings: cited from earlier work; for kcat / Km: kdsD; for kcat: A5P to Ru5P or Ru5P to A5P, labelled by substrate
Sequence of kdsD (P45395 whole entry): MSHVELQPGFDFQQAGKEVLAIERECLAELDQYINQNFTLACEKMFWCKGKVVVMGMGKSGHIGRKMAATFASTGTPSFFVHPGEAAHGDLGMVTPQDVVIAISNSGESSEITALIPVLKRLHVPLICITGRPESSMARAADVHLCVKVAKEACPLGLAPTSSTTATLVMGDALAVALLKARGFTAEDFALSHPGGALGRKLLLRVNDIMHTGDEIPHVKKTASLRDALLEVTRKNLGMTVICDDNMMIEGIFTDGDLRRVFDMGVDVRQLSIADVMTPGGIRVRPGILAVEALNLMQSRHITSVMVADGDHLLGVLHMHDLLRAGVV

[2] = tested on: BW30270; test: microbe, parasite or virus in culture; assay type: cell-based, E. coli K-12; settings: LB media, 37° C., 18 hours, lowest concentration that completely inhibited growth; for MIC: Escherichia coli, read-out: Minimum Inhibitory Concentration BW30270
Experimental: (§1) The antibiotics used were from Sigma with the exception of cephaloridine, which was obtained from MicroSource Discovery Systems. Antibiotics were chosen based on their varying mode of action and entry into the cell. […] Colonies from LB agar plate were scraped and suspended in media (˜10^4 cells per mL) with varying concentrations of antibiotics. Cultures were incubated with shaking (˜200 rpm) at 37° C. for 18 hours at which point growth was scored by visual inspection.

[3] = tested on: KPM22; test: microbe, parasite or virus in culture; assay type: cell-based, E. coli; settings: for MIC: Escherichia coli, read-out: Minimum Inhibitory Concentration KPM22
Experimental: as §1

[4] = target: gutQ (Escherichia coli, UniProt P17115); settings: for alternate substrate, product appearance: determined by 31P-NMR
Experimental: This example describes enzyme assays used in experiments conducted during the course of the present invention. […] All plates contained internal Ru5P standards and appropriate A5P controls in triplicate. One unit of enzyme activity is defined as the conversion of 1 μmol of sugar phosphate per minute at 37° C.
This example describes the characterization of gutQ. […] After 10 minutes at 37° C., reactions containing the potential alternate substrates D-arabinose, D-ribose 5-phosphate, D-glucose 6-phosphate (G6P), D-glucose 1-phosphate, D-glucosamine 6-phosphate, or D-mannose 6-phosphate were quenched and the presence of ketose was determined. Product appearance for D/L-glyceraldehyde 3-phosphate, D-erythrose 4-phosphate, and D-fructose 6-phosphate was assayed by ^31P NMR. Kinetic constants were determined at 37° C. using the discontinuous microplate assay and were initiated by the addition of substrate. Concentrations typically ranged from 0.2Km to 10Km. […] Initial rates (v0) were determined in triplicate and fit to the standard Michaelis-Menten equation using nonlinear least-squares regression to determine Km and kcat values for both the formation and disappearance of Ru5P.

[5] = substrate: O=C[C@@H](O)[C@H](O)[C@H](O)COP(=O)(O)O; test: purified protein, by the assay type; settings: other: gutQ, 37° C., pH 8.25
[6] = substrate: O=C(CO)[C@H](O)[C@H](O)COP(=O)(O)O; test: purified protein, by the assay type; settings: other: gutQ, 37° C., pH 8.25
[7] = LB media, 37° C., 18 hours, lowest concentration that completely inhibited growth

O=C[C@@H](O)[C@H](O)[C@H](O)COP(=O)(O)O [A5P, d-arabinose 5-phosphate]
kcat [1]: 157 ± 4 s⁻¹ | Km [1]: 610 ± 60 µM

CCCCCCCCCCCCOS(=O)(=O)[O-].[Na+] [Sodium dodecyl sulfate (SDS), Sodium dodecyl sulfate]
MIC [2]: > 32000 µg/mL | MIC [3, 7]: 8 µg/mL | Fold Difference in MIC ([3]; MIC BW30270 versus MIC KPM22, listed as sodium dodecyl sulfate, sulfate): > 4000 fold | Fold Difference in MIC ([3]; MIC BW30270 versus MIC KPM22, sulfate): >4000 fold

CN[C@H](CC(C)C)C(=O)N[C@H]1C(=O)N[C@@H](CC(N)=O)C(=O)N[C@H]2C(=O)N[C@H]3C(=O)N[C@H](C(=O)N[C@H](C(=O)O)c4cc(O)cc(O)c4-c4cc3ccc4O)[C@H](O)c3ccc(c(Cl)c3)Oc3cc2cc(c3O[C@@H]2O[C@H](CO)[C@@H](O)[C@H](O)[C@H]2O[C@H]2C[C@](C)(N)[C@H](O)[C@H](C)O2)Oc2ccc(cc2Cl)[C@H]1O [Vancomycin]
MIC [2]: 256 µg/mL (≈ 177 µM) | MIC [3, 7]: 32 µg/mL (≈ 22.1 µM)

[Zn+2] [Zn^2+]
Inhibition by 10 μM Zn^2+ [4]: Yes | Inhibition by 10 μM Zn^2+ [1]: Yes

O=CC(O)COP(=O)(O)O [D/L-glyceraldehyde 3-phosphate]
alternate substrate, product appearance [4]: served as alternate substrates

CO[C@@H]1[C@@H](OC(N)=O)[C@@H](O)[C@H](Oc2ccc3c(O)c(NC(=O)c4ccc(O)c(CC=C(C)C)c4)c(=O)oc3c2C)OC1(C)C [Novobiocin]
MIC [3, 7]: 1 µg/mL (≈ 1.63 µM)

CC[C@H](C)[C@H](N)C1=N[C@H](C(=O)N[C@@H](CC(C)C)C(=O)N[C@H](CCC(=O)O)C(=O)N[C@H](C(=O)N[C@H]2CCCCNC(=O)[C@H](CC(N)=O)NC(=O)[C@@H](CC(=O)O)NC(=O)[C@H](Cc3cnc[nH]3)NC(=O)[C@@H](Cc3ccccc3)NC(=O)[C@H]([C@@H](C)CC)NC(=O)[C@@H](CCCN)NC2=O)[C@@H](C)CC)CS1 [Bacitracin] ({Ileψ(thiazoline)Cys}-L[dE]IK[dOrn]I[dF]H[dD]N; lactam 4-C)
Minimum Inhibitory Concentration BW30270 [2]: 4096 µg/mL | Minimum Inhibitory Concentration KPM22 [3, 7]: 512 µg/mL | Fold Difference in MIC ([3]; MIC BW30270 versus MIC KPM22): 8 fold

O=C(CO)[C@@H](O)[C@H](O)[C@H](O)COP(=O)(O)O [D-fructose 6-phosphate]
alternate substrate, product appearance [4]: served as alternate substrates

O=C(CO)[C@H](O)[C@H](O)COP(=O)(O)O [Ru5P, D-ribulose 5-phosphate]
kcat [1]: 255 ± 16 s⁻¹ | Km [1]: 350 ± 80 µM

CC1(C)S[C@@H]2[C@H](NC(=O)[C@H](N)c3ccccc3)C(=O)N2[C@H]1C(=O)O [Ampicillin]
MIC [2]: 4 µg/mL (≈ 11.4 µM) | Fold Difference in MIC [3]: 2 fold | MIC ([3]; 18 h): 2 µg/mL (≈ 5.72 µM)

CC(=O)O[C@H]1C[C@@]2(C)[C@@H](C[C@@H](O)[C@H]3[C@@]4(C)CC[C@@H](O)[C@@H](C)[C@@H]4CC[C@@]32C)/C1=C(\CCC=C(C)C)C(=O)O [Fusidic Acid]
MIC [2]: 512 µg/mL (≈ 991 µM) | MIC [3, 7]: 2 µg/mL (≈ 3.87 µM) | Fold Difference in MIC ([3]; MIC BW30270 versus MIC KPM22): 256 fold

NC[C@H]1O[C@H](O[C@H]2[C@H](O)[C@@H](O[C@H]3O[C@H](CO)[C@@H](O)[C@H](N)[C@H]3O)[C@H](N)C[C@@H]2N)[C@H](O)[C@@H](O)[C@@H]1O [Kanamycin]
MIC [2]: 16 µg/mL (≈ 33 µM) | MIC [3, 7]: 1 µg/mL (≈ 2.06 µM) | Fold Difference in MIC ([3]; MIC BW30270 versus MIC KPM22): 16 fold

Polymyxin E
Minimum Inhibitory Concentration BW30270 [2]: 0.25 µg/mL | Minimum Inhibitory Concentration KPM22 [3, 7]: 0.06 µg/mL | Fold Difference in MIC ([3]; MIC BW30270 versus MIC KPM22): ~4 fold

O=C(O)CN(CCN(CC(=O)O)CC(=O)O)CC(=O)O [EDTA]
Activation by EDTA [4]: Yes | Activation by EDTA [1]: Yes

O=C(N[C@H](CO)[C@H](O)c1ccc([N+](=O)[O-])cc1)C(Cl)Cl [Chloramphenicol]
MIC [2]: 8 µg/mL (≈ 24.8 µM) | MIC [3, 7]: 2 µg/mL (≈ 6.19 µM)

CO[C@H]1/C=C/O[C@@]2(C)Oc3c(C)c(O)c4c(O)c(c(/C=N/N5CCN(C)CC5)c(O)c4c3C2=O)NC(=O)/C(C)=C\C=C\[C@H](C)[C@H](O)[C@@H](C)[C@@H](O)[C@@H](C)[C@H](OC(C)=O)[C@@H]1C [Rifampin]
MIC [2]: 16 µg/mL (≈ 19.4 µM)

O=C(Cc1cccs1)N[C@@H]1C(=O)N2C(C(=O)[O-])=C(C[n+]3ccccc3)CS[C@H]12 [Cephaloridine]
MIC [2]: 4 µg/mL (≈ 9.63 µM) | MIC [3, 7]: 4 µg/mL (≈ 9.63 µM) | Fold Difference in MIC ([3]; MIC BW30270 versus MIC KPM22): 1 fold

O=C[C@H](O)[C@H](O)COP(=O)(O)O [D-erythrose 4-phosphate]
alternate substrate, product appearance [4]: served as alternate substrates

CC[C@H]1OC(=O)[C@H](C)[C@@H](O[C@H]2C[C@@](C)(OC)[C@@H](O)[C@H](C)O2)[C@H](C)[C@@H](O[C@@H]2O[C@H](C)C[C@H](N(C)C)[C@H]2O)[C@](C)(O)C[C@@H](C)C(=O)[C@H](C)[C@@H](O)[C@]1(C)O [Erythromycin]
MIC [3, 7]: 1 µg/mL (≈ 1.36 µM)

B1: gutQ (Escherichia coli K-12) (protein)
chain: MSEALLNAGRQTLMLELQEASRLPERLGDDFVRAANIILHCEGKVVVSGIGKSGHIGKKIAATLASTGTPAFFVHPAEALHGDLGMIESRDVMLFISYSGGAKELDLIIPRLEDKSIALLAMTGKPTSPLGLAAKAVLDISVEREACPMHLAPTSSTVNTLMMGDALAMAVMQARGFNEEDFARSHPAGALGARLLNKVHHLMRRDDAIPQVALTASVMDAMLELSRTGLGLVAVCDAQQQVQGVFTDGDLRRWLVGGGALTTPVNEAMTVGGTTLQSQSRAIDAKEILMKRKITAAPVVDENGKLTGAINLQDFYQAGII
Km [5]: 1.2 ± 0.1 mM | kcat [5]: 218 ± 4 s⁻¹ | Km [6]: 0.64 ± 0.08 mM | kcat [6]: 242 ± 11 s⁻¹
